In paper PMC6858373 (Scientific Reports, 2019):
Structures can show the parent of a compound that is named as a salt. Where two headings read alike, the source gives them in different places.

What was measured:
Clone V cells = settings: human
in vitro = settings: human
[1] = molecular target: full-length P. pyralis luciferase (Photinus pyralis, UniProt P08659, K549A/L550V/N119G/N50D/S548I); assay type: cell-based
[2] = molecular target: T1, FGF14:Nav1.6 C-tail complex (Homo sapiens, UniProt Q92915+Q9UQD0); experiment: Split-luciferase complementation assay (LCA) in Clone V double stable HEK293 cells; assay type: cell-based
T1 construct: polymerase chain reaction (PCR) amplification of the FGF14 open reading frame (nt 1–855); C-terminal fragment of Nav1.6 (amino acids 1763–1976) fused with CD4ΔC-tail (amino acids 1–395); expressed in transfected cells
T1 sequence (Q92915 1-252 isoform Q92915-2): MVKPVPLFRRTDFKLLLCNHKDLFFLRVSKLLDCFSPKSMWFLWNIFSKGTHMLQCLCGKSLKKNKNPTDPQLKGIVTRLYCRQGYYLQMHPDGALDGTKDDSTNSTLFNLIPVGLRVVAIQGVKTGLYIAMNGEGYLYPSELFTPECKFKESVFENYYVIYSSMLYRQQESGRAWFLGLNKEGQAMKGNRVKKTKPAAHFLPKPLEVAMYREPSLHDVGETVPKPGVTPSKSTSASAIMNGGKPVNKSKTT
T1 sequence (Q9UQD0 1763-1976 limits assumed): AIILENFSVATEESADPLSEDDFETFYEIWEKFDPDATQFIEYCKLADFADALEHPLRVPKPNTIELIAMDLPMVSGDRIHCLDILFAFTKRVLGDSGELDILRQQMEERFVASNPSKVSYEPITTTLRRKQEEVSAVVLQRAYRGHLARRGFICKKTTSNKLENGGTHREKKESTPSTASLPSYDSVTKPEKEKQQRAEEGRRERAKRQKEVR

[3] = CC_NCI screening, normalized to on-plate 0.3% DMSO controls
[4] = CC_NCI screening, biological replicate Set 1, normalized to on-plate 0.3% DMSO controls
[5] = CC_NCI screening, biological replicate Set 1, normalized to on-plate 0.3% DMSO controls (n=16 per plate)
[6] = CC_NCI screening, biological replicate Set 2, normalized to on-plate 0.3% DMSO controls
[7] = CC_NCI screening, biological replicate Set 2, normalized to on-plate 0.3% DMSO controls (n=16 per plate)
[8] = average of Set 1 and Set 2, normalized to 0.3% DMSO controls

Chain of full-length P. pyralis luciferase (P08659 whole entry N50D/N119G/S548I/K549A/L550V, looked up): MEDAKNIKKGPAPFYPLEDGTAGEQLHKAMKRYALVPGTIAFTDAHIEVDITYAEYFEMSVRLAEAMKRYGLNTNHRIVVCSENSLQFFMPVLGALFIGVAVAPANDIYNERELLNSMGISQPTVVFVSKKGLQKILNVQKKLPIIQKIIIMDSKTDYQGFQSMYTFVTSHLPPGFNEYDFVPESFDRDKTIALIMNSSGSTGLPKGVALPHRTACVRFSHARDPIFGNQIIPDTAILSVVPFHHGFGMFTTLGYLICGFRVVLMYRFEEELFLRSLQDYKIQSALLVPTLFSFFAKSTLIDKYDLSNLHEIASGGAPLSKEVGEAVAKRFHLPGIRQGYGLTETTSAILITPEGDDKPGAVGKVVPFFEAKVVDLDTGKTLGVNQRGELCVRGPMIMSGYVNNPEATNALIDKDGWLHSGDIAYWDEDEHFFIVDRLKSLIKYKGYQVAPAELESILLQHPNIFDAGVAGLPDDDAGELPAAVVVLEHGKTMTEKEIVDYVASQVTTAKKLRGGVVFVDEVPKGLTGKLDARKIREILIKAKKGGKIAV

SMILES | Toxicity Assay Z-score (CTB cell viability) (Clone V cells; 16 h, 30 µM) | viability at 16 h, 30 µM (in vitro; Clone V cells) [%] | Luciferase Assay % Lum (full-length luciferase counter-screen) [1, 3] [%] | Luciferase Assay Z-score (full-length luciferase counter-screen) [1, 3] | Split Luciferase Assay Z-score Set 1 [2, 4] | Split Luciferase Assay % Lum Set 1 [2, 5] [%] | Split Luciferase Assay Z-score Set 2 [2, 6] | Split Luciferase Assay %Lum Set 2 [2, 7] [%] | Split Luciferase Assay %Lum Avg [2, 8] [%] | viability at 16 h, 30 µM (in vitro) [%] | Luciferase Assay % Lum (full-length luciferase counter-screen) [1] [%] | Luciferase Assay Z-score (full-length luciferase counter-screen) [1] | Toxicity Assay Z-score (CTB cell viability) (Clone V cells) | viability (in vitro) [%] | Split Luciferase Assay % Lum Set 1 [2] [%] | Split Luciferase Assay %Lum Avg [2] [%] | Split Luciferase Assay %Lum Set 2 [2] [%] | Split Luciferase Assay Z-score Set 1 [2] | Split Luciferase Assay Z-score Set 2 [2]
CC1(C)CNc2cc(NC(=O)c3cccnc3NCc3ccncc3)ccc21 [MOTESANIB] | -0.04 | 99.7 | 76.36 | -3.03 | -1.77 | 78.05 | -0.86 | 89.47 | 83.76 |  |  |  |  |  |  |  |  |  | 
CC(=O)O[C@]1(C(C)=O)CC[C@H]2[C@@H]3C=C(C)C4=CC(=O)CC[C@]4(C)[C@H]3CC[C@@]21C [Megestrol acetate] | 0.79 |  |  |  | 4.24 | 152.52 | 2.87 | 135.24 | 143.88 | 106 | 99.64 | -0.05 |  |  |  |  |  |  | 
Sc1ncnc2nc[nH]c12 [Mercaptopurine] | 0.87 |  | 102.01 | 0.26 | 1.52 | 118.82 | 1.01 | 112.35 | 115.59 | 106 |  |  |  |  |  |  |  |  | 
CN(Cc1cnc2nc(N)nc(N)c2n1)c1ccc(C(=O)N[C@@H](CCC(=O)O)C(=O)O)cc1 [Methotrexate] | 0.27 | 102 | 94.27 | -0.73 | 0.73 | 109.04 | 0.24 |  | 106.01 |  |  |  |  |  |  |  |  |  | 
CO[C@@]12[C@H](COC(N)=O)C3=C(C(=O)C(C)=C(N)C3=O)N1C[C@@H]1N[C@@H]12 [Mitomycin] |  |  | 110.98 | 1.41 | 0.73 | 109.04 | -0.01 | 99.87 | 104.45 |  |  |  | 2.45 | 118 |  |  |  |  | 
Clc1ccc(C(c2ccccc2Cl)C(Cl)Cl)cc1 (stereo not shown) [Mitotane] | -0.85 |  | 54.78 | -5.79 | -6.12 | 24.24 | -5.17 | 36.41 | 30.33 | 93.9 |  |  |  |  |  |  |  |  | 
Oc1cccc(-c2nc(N3CCOCC3)c3oc4ncccc4c3n2)c1 [PI-103] | 2.64 | 119 |  | 0.79 | 0.91 | 111.21 | -0.43 | 94.67 | 102.94 |  |  |  |  |  |  |  |  |  | 
CC(=O)O[C@H]1C(=O)[C@@]2(C)[C@H]([C@H](OC(=O)c3ccccc3)[C@]3(O)C[C@H](OC(=O)[C@H](O)[C@@H](NC(=O)c4ccccc4)c4ccccc4)C(C)=C1C3(C)C)[C@]1(OC(C)=O)CO[C@@H]1C[C@@H]2O [Paclitaxel] | 1.59 |  | 114.27 | 1.83 | -1.03 | 87.29 | -0.43 | 94.67 | 90.98 | 111 |  |  |  |  |  |  |  |  | 
CNNCc1ccc(C(=O)NC(C)C)cc1 [Procarbazine hydrochloride] | 1.21 |  |  |  | 1.52 | 118.82 | -0.26 | 96.75 | 107.78 | 109 | 99.34 | -0.08 |  |  |  |  |  |  | 
COc1cc(F)c(F)c(Nc2ccc(I)cc2F)c1NS(=O)(=O)C1(C[C@H](O)CO)CC1 [RDEA119] | 0.34 |  | 66.81 | -4.25 | -7.09 | 12.28 | -7.37 | 9.36 | 10.82 | 102 |  |  |  |  |  |  |  |  | 
CC/C(=C(\c1ccccc1)c1ccc(OCCN(C)C)cc1)c1ccccc1 [Tamoxifen citrate] | -7.92 |  |  |  |  |  |  |  |  | 43.4 | 59.05 | -5.24 |  |  | 4.67 | 2.86 | 1.04 | -7.70 | -8.05
COc1cc([C@@H]2c3cc4c(cc3[C@@H](O[C@@H]3O[C@@H]5CO[C@@H](c6cccs6)O[C@H]5[C@H](O)[C@H]3O)[C@H]3COC(=O)[C@H]23)OCO4)cc(OC)c1O [Teniposide] | 0.66 | 105 | 92.82 | -0.92 | 1.61 | 119.91 | 2.11 | 125.88 | 122.89 |  |  |  |  |  |  |  |  |  | 
S=P(N1CC1)(N1CC1)N1CC1 [Thiotepa] | 1.01 | 107 | 95.81 | -0.54 | 0.38 |  | 2.11 |  |  |  |  |  |  |  | 104.69 | 115.28 | 125.88 |  | 
C1CN1c1nc(N2CC2)nc(N2CC2)n1 [Triethylenemelamine] |  |  |  |  |  |  |  |  |  |  | 108.47 | 1.08 | 0.82 | 106 | 118.82 | 117.67 | 116.51 | 1.52 | 1.34
NC(=O)c1ccc(N(C(N)=O)c2c(F)cccc2F)nc1-c1ccc(F)cc1F [VX-702] | 0.75 |  | 93.91 | -0.78 | 1.35 | 116.65 | -2.63 | 67.62 | 92.13 | 105 |  |  |  |  |  |  |  |  | 
CCCCC(=O)OCC(=O)[C@]1(O)Cc2c(O)c3c(c(O)c2[C@@H](O[C@H]2C[C@H](NC(=O)C(F)(F)F)[C@H](O)[C@H](C)O2)C1)C(=O)c1c(OC)cccc1C3=O [Valrubicin] | 0.60 |  |  |  | 2.84 | 135.13 | 1.17 | 114.43 | 124.78 | 104 | 92.36 | -0.98 |  |  |  |  |  |  | 
CC[C@]1(O)C[C@@H]2CN(CCc3c([nH]c4ccccc34)[C@@](C(=O)OC)(c3cc4c(cc3OC)N(C)[C@H]3[C@@](O)(C(=O)OC)[C@H](OC(C)=O)[C@]5(CC)C=CCN6CC[C@]43[C@@H]65)C2)C1 [Vinblastine sulfate] | 1.05 |  | 109.75 | 1.25 | 9.52 | 217.75 | 5.32 | 165.41 | 191.58 | 108 |  |  |  |  |  |  |  |  | 
